According to the supplement of paper PMC4862054:
“And” between values parts separate entries of the source, which are not always exact repeats. Equal values may be shown once.

Tests used:
Assay in all cases: normalised viability (% of control), CellTiter-Blue; higher = more viable cells (about 100 = DMSO control)
Details in all cases: incubation time: 72 h
[1] = system: CAL-85-1
Method in brief: (§1)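 Plates were quality-checked by Z'-factor and normalised to vehicle (100) and a positive kill control (0). The underlying assay incubated breast cancer cell lines for 72 h on 384-well plates with compound, then added 2.5 µl CellTiter-Blue for 2 h at 37 °C and read at 560/590 nm. The value is normalised viability at a single listed concentration of the series.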

[2] = system: MDA-MB-436
Method in brief: as §1

[3] = system: DU-4475
Method in brief: as §1

[4] = system: Hs578T
Method in brief: as §1

[5] = system: HDQ-P1
Method in brief: as §1

[6] = system: CAL-148
Method in brief: as §1

[7] = system: BT-549
Method in brief: as §1

[8] = system: CAL-120
Method in brief: as §1

[9] = system: SK-BR-3
Method in brief: as §1

[10] = system: MFM-223
Method in brief: as §1

[11] = system: CAL-51
Method in brief: as §1

[12] = system: HCC1143
Method in brief: as §1

[13] = system: MDA-MB-231
Method in brief: as §1

[14] = system: BT-474
Method in brief: as §1

[15] = system: MDA-MB-468
Method in brief: as §1

[16] = system: HCC1937
Method in brief: as §1

NC1(c2ccc(-c3nc4ccn5c(=O)[nH]nc5c4cc3-c3ccccc3)cc2)CCC1 [MK-2206]
normalised viability [%]
Details | 0.3 nM | 1 nM | 3 nM | 10 nM | 100 nM | 1000 nM
[1] | 104 | – | 95 | 100 | – | –
[2] | – | 104 | – | – | 80.7 | 81
[3] | 120 | – | 111 | 107 | – | –
[4] | – | 118 | – | – | 124 | 85.2
[5] | 110 | – | 111 | 109 | – | –
[6] | 102 | – | 106 | 110 | – | –
[7] | – | 101 | – | – | 106 | 85.3
[8] | – | 111 | – | – | 106 | 79.2
[9] | – | 107 | – | – | 76.2 | 42.1
[10] | – | 109 | – | – | 96.8 | 19.8
[11] | 104 | – | 101 | 99.6 | – | –
[12] | – | 105 | – | – | 108 | 87.7
[13] | – | 127 | – | – | 95.9 | 104
[14] | – | 115 | – | – | 92.3 | 54
[15] | – | 108 | – | – | 90.7 | 72.9
[16] | – | 87.4 | – | – | 98.5 | 104

CC/C(=C(\c1ccccc1)c1ccc(OCCN(C)C)cc1)c1ccccc1 [Tamoxifen]
normalised viability [%]
Details | 3 nM | 10 nM | 30 nM | 100 nM | 1000 nM | 10000 nM
[1] | 100 | – | 92 | 116 | – | –
[2] | – | 101 | – | – | 94.7 | 40.1
[3] | 99.9 | – | 95.7 | 110 | – | –
[4] | – | 122 | – | – | 123 | 104
[5] | 109 | – | 100 | 110 | – | –
[6] | 111 | – | 105 | 127 | – | –
[7] | – | 83.3 | – | – | 82.8 | 56.5
[8] | – | 110 | – | – | 100 | 82.1
[9] | – | 101 | – | – | 107 | 80.9
[10] | – | 89 | – | – | 87.7 | 54.1
[11] | 89.5 | – | 92.2 | 93.4 | – | –
[12] | – | 113 | – | – | 110 | 120
[13] | – | 93.1 | – | – | 94.6 | 115
[14] | – | 111 | – | – | 117 | 77.5
[15] | – | 100 | – | – | 106 | 9.44
[16] | – | 83.4 | – | – | 83.1 | 98.6

N[C@@H](Cc1ccc(N(CCCl)CCCl)cc1)C(=O)O [Melphalan]
normalised viability [%]
Details | 0.297 nM | 0.99 nM | 2.97 nM | 9.9 nM | 99 nM | 990 nM
[1] | 94.8 | – | 91.2 | 96.6 | – | –
[2] | – | 88.2 | – | – | 90 | 75.4
[3] | 101 | – | 84.1 | 92.8 | – | –
[4] | – | 98.4 | – | – | 82 | 73
[5] | 117 | – | 94 | 91.2 | – | –
[6] | 92.6 | – | 94.5 | 91.4 | – | –
[7] | – | 92.7 | – | – | 115 | 89.3
[8] | – | 74.3 | – | – | 71.6 | 64.3
[9] | – | 94.6 | – | – | 98.8 | 50.6
[10] | – | 90 | – | – | 84.7 | 99.3
[11] | 105 | – | 102 | 107 | – | –
[12] | – | 67.8 | – | – | 70.3 | 67.8
[13] | – | 91.1 | – | – | 97.7 | 91.5
[14] | – | 99.9 | – | – | 98 | 99.1
[15] | – | 95.7 | – | – | 99.7 | 63
[16] | – | 89 | – | – | 64.2 | 39.5

COc1cc2c(Oc3ccc(NC(=O)C4(C(=O)Nc5ccc(F)cc5)CC4)cc3F)ccnc2cc1OCCCN1CCOCC1 [Foretinib]
normalised viability [%]
Details | 0.3 nM | 1 nM | 3 nM | 10 nM | 100 nM | 1000 nM
[1] | 95 | – | 86.3 | 95.8 | – | –
[2] | – | 132 | – | – | 77.8 | 84
[3] | 104 | – | 91.8 | 105 | – | –
[4] | – | 114 | – | – | 106 | 61
[5] | 107 | – | 99.2 | 105 | – | –
[6] | 99.8 | – | 97.6 | 96.4 | – | –
[7] | – | 79 | – | – | 101 | 72
[8] | – | 88.3 | – | – | 95.4 | 41.8
[9] | – | 97.5 | – | – | 102 | 77.5
[10] | – | 102 | – | – | 58.5 | 35
[11] | 99.1 | – | 88.6 | 95.2 | – | –
[12] | – | 104 | – | – | 103 | 82.8
[13] | – | 97.8 | – | – | 113 | 50.6
[14] | – | 102 | – | – | 117 | 84.3
[15] | – | 102 | – | – | 111 | 52.4
[16] | – | 80.8 | – | – | 91.3 | 64.9

CN1CCN(c2nc(C3=C(c4c[nH]c5ccccc45)C(=O)NC3=O)c3ccccc3n2)CC1 [Sotrastaurin]
normalised viability [%]
Details | 3 nM | 10 nM | 30 nM | 100 nM | 1000 nM | 10000 nM
[1] | 106 | – | 111 | 130 | – | –
[2] | – | 112 | – | – | 59.1 | 107
[3] | 98.6 | – | 94 | 115 | – | –
[4] | – | 98.7 | – | – | 98.4 | 87.2
[5] | 88.9 | – | 98.8 | 94.1 | – | –
[6] | 115 | – | 113 | 119 | – | –
[7] | – | 82.5 | – | – | 92.8 | 74.2
[8] | – | 110 | – | – | 118 | 110
[9] | – | 95.6 | – | – | 103 | 73.1
[10] | – | 103 | – | – | 93.8 | 74
[11] | 94.4 | – | 91 | 90.9 | – | –
[12] | – | 135 | – | – | 119 | 120
[13] | – | 94.5 | – | – | 101 | 124
[14] | – | 112 | – | – | 109 | 94.6
[15] | – | 95.6 | – | – | 93 | 89.8
[16] | – | 54.1 | – | – | 81.4 | 95.1

CO[C@H](C(=O)[C@@H](O)[C@@H](C)O)[C@@H]1Cc2cc3cc(O[C@H]4C[C@@H](O[C@@H]5C[C@@H](O)[C@H](O)[C@@H](C)O5)[C@H](O)[C@@H](C)O4)c(C)c(O)c3c(O)c2C(=O)[C@H]1O[C@H]1C[C@@H](O[C@@H]2C[C@@H](O)[C@@H](O[C@@H]3C[C@](C)(O)[C@H](O)[C@@H](C)O3)[C@@H](C)O2)[C@H](O)[C@@H](C)O1 [Plicamycin]
Details | normalised viability
[1], 3 nM | 87.3% and 88.3%
[1], 30 nM | 89.2% and 83.9%
[1], 100 nM | 51.5% and 39.5%
[2], 10 nM | 95.2% and 75.5%
[2], 1000 nM | 25.8% and 19.9%
[2], 10000 nM | 21.7% and 13.9%
[3], 3 nM | 85.1% and 89.9%
[3], 30 nM | 88.7% and 83.8%
[3], 100 nM | 1.46% and 0.7%
[4], 10 nM | 100% and 82.1%
[4], 1000 nM | 3.62% and 2.96%
[4], 10000 nM | 2.27% and 1.73%
[5], 30 nM | 104% and 80.5%
[5], 100 nM | 68.5% and 44.6%
[6], 3 nM | 87.7%
[6], 30 nM | 95.3% and 99.5%
[6], 100 nM | 26% and 38.8%
[7], 10 nM | 94.7% and 83.2%
[7], 1000 nM | 6.74% and 5.38%
[7], 10000 nM | 6.68% and 5.22%
[8], 10 nM | 89.5% and 75.6%
[8], 1000 nM | 13.4% and 10.2%
[8], 10000 nM | 11.9% and 9.12%
[9], 10 nM | 111% and 88.8%
[9], 1000 nM | 6.61% and 5.62%
[9], 10000 nM | 4.44% and 5.25%
[10], 10 nM | 103% and 87.9%
[10], 1000 nM | 20.3% and 16.5%
[10], 10000 nM | 9.96% and 7.4%
[11], 3 nM | 99.7% and 119%
[11], 30 nM | 96.1% and 112%
[11], 100 nM | 62.3% and 61.2%
[12], 10 nM | 84.9% and 62.2%
[12], 1000 nM | 22% and 14.7%
[12], 10000 nM | 16.7% and 14.6%
[13], 10 nM | 82.1% and 88.4%
[13], 1000 nM | 9.81% and 8.56%
[13], 10000 nM | 8.03% and 7.03%
[14], 10 nM | 122% and 103%
[14], 1000 nM | 36% and 23.9%
[14], 10000 nM | 22.1% and 26.4%
[15], 10 nM | 91.4% and 92.1%
[15], 1000 nM | 3.16% and 3.32%
[15], 10000 nM | 2.7% and 3.47%
[16], 10 nM | 85.8% and 78.5%
[16], 1000 nM | 22.1% and 19.5%
[16], 10000 nM | 29.1% and 20.6%
